Source: ChEMBL document CHEMBL3886351, “TrkA kinase inhibitors, compositions and methods thereof” (2015)
pEC50: −log10 of the molar value.

Molecular target: High affinity nerve growth factor receptor (Homo sapiens, UniProt P04629)
Assay: Kinase Activity Assay: TrkA kinase activity was measured as the ability of the enzyme to phosphorylate a fluorescently labeled peptide substrate. Buffer salts, reagents, and fluorescently labeled peptides were purchased from Carna Biosciences and were of the highest quality available (QSS Assist TRKA_MSA Kit). Enzyme was purchased from Cell Signaling, and was used without further purification. 384-well round bottom assay plates were prepared by the addition of 200 nl of a DMSO solution of compound at various concentrations to final inhibitor concentrations ranging from 100 μM to […]. Next, assay buffer (10 μl) containing substrate and ATP were added, followed by addition of 10 μl of enzyme in assay buffer. Final assays concentrations were: [E]=0.37 nM, [S]=1 μM, [ATP]=2 mM. The reactions were incubated at room temperature for 3 hours resulting in approximately 15% substrate phosphorylation and were terminated by the addition of 5 μl of stop buffer.

Chain of High affinity nerve growth factor receptor (P04629 whole entry): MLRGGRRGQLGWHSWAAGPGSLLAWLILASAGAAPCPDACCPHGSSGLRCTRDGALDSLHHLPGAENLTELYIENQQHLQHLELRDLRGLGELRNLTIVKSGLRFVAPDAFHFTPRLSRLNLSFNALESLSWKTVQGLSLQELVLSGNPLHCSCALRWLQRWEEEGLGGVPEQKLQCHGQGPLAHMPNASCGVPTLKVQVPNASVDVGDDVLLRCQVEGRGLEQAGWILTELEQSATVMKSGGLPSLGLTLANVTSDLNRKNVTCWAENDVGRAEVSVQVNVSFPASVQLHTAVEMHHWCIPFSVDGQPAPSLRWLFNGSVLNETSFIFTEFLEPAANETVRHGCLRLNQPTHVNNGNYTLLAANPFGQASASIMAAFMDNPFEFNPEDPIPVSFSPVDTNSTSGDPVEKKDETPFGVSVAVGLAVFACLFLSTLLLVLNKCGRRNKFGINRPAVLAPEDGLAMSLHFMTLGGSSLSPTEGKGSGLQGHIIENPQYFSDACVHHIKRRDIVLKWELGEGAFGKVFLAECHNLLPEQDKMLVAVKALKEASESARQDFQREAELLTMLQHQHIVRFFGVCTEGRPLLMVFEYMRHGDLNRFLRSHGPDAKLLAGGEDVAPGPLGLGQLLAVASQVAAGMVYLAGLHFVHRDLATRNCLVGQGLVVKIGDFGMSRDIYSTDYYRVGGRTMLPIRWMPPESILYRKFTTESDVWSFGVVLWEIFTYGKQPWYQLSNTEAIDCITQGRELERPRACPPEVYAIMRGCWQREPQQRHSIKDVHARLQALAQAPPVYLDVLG

SMILES	pEC50
CC(C)N(Cc1n[nH]c2ncccc12)C(=O)Nc1ccc(SC(F)(F)F)cc1	7.60
CC1(C)CCN(c2ccc(SC(F)(F)F)cc2)C(=O)N1Cc1c[nH]c2ncccc12	7.71
C#CC(C)N(Cc1cccc(-c2nccs2)c1)C(=O)Nc1ccc(OC(F)(F)F)cc1 (configuration not stated)	7.32
CC(C)N(Cc1cc(-c2nccs2)ccn1)C(=O)Nc1ccc(OC(F)(F)F)cc1	5.09
CC(C)N(Cc1cccc(-c2nccs2)c1)C(=O)Nc1cnc(C(C)(C)C)nc1	6.99
CC(C)N(Cc1n[nH]c2ncccc12)C(=O)Nc1ccc(OC(F)(F)F)cc1	6.85
CC(C)N(Cc1cccc(-c2nccs2)c1)C(=O)Nc1ccc(OC(F)(F)F)cc1	6.92
